Assay results from patent publication US9113629B2, “4-amino-6-(4-substituted-phenyl)-picolinates and 6-amino-2-(4-substituted-phenyl)-pyrimidine-4-carboxylates and their use as herbicides” (DOW AGROSCIENCES LLC, priority 2013, dated 2015).
Like-named read-outs stand apart in the source and are kept apart here.

Experiments:
[1] = system: Key Broadleaf Weed and Crop Species; assay: Post-emergent Test II herbicidal activity (Table 5); type: in vivo; conditions: post-emergence, 336 h, 14 days after application; for pest or weed control at 70 g/ha: application rate 70 g ai/ha; for pest or weed control at 140 g/ha: application rate 140 g ai/ha
In short: (§1)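 Plants grown in Metro-Mix 360 (pH 6.0–6.8) in a greenhouse (~15 h photoperiod, 23–29 °C day) to first or second true leaf stage, then sprayed with compound in acetone/DMSO/aqueous crop-oil-surfactant carrier at 187 L/ha by track sprayer. Injury visually scored 0–100% versus untreated plants after 14 d.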

[2] = system: Key Grass and Sedge Weeds as well as Grass Crops; assay: Post-emergent Test II herbicidal activity (Table 6); type: in vivo; conditions: post-emergence, 336 h; for pest or weed control at 70 g/ha: 70 g ai/ha; for pest or weed control at 140 g/ha: 140 g ai/ha
In short: as §1

[3] = ABUTH: velvetleaf (Abutilon theophrasti), read-out: Visual Growth Reduction (%) 14 Days After Application, ABUTH
[4] = AMARE: redroot pigweed (Amaranthus retroflexus), read-out: Visual Growth Reduction (%) 14 Days After Application, AMARE
[5] = BRSNN: oilseed-rape, canola (Brassica napus), read-out: Visual Growth Reduction (%) 14 Days After Application, BRSNN
[6] = CHEAL: lambsquarters (Chenopodium album), read-out: Visual Growth Reduction (%) 14 Days After Application, CHEAL
[7] = EPHHL: wild poinsettia (Euphorbia heterophylla), read-out: Visual Growth Reduction (%) 14 Days After Application, EPHHL
[8] = HELAN: sunflower (Helianthus annuus), read-out: Visual Growth Reduction (%) 14 Days After Application, HELAN
[9] = VIOTR: wild pansy (Viola tricolor), read-out: Visual Growth Reduction (%) 14 Days After Application, VIOTR
[10] = CYPES: yellow nutsedge (Cyperus esculentus), read-out: Visual Growth Reduction (%) 14 Days After Application, CYPES
[11] = DIGSA: crabgrass (Digitaria sanguinalis), read-out: Visual Growth Reduction (%) 14 Days After Application, DIGSA
[12] = ECHCG: barnyardgrass (Echinochloa crus-galli), read-out: Visual Growth Reduction (%) 14 Days After Application, ECHCG
[13] = ORYSA: rice (Oryza sativa), crop, read-out: Visual Growth Reduction (%) 14 Days After Application, ORYSA
[14] = SETFA: giant foxtail (Setaria faberi), read-out: Visual Growth Reduction (%) 14 Days After Application, SETFA
[15] = SORVU: grain sorghum (Sorghum vulgare), read-out: Visual Growth Reduction (%) 14 Days After Application, SORVU
[16] = TRZSS (wheat, Triticum aestivum), crop, read-out: Visual Growth Reduction (%) 14 Days After Application, TRZSS
[17] = ZEAMX: maize, corn (Zea mays), crop, read-out: Visual Growth Reduction (%) 14 Days After Application, ZEAMX

**Q.** Which pest or weed control at 70 g/ha [1, 3] does the source give for COC(=O)c1nc(-c2ccccc2)nc(N)c1OC [Compound 175] here?
**A.** Its pest or weed control at 70 g/ha is 45 to 59%.

**Q.** And the pest or weed control at 140 g/ha [1, 3]?
**A.** Its pest or weed control at 140 g/ha is 45 to 59%.

**Q.** What about the pest or weed control at 70 g/ha [1, 4] of the same compound?
**A.** Its pest or weed control at 70 g/ha is 45 to 59%.

**Q.** What about the pest or weed control at 140 g/ha [1, 4] of the same compound?
**A.** The pest or weed control at 140 g/ha was 95 to 100%.

**Q.** What about the pest or weed control at 70 g/ha [1, 5] of the same compound?
**A.** Its pest or weed control at 70 g/ha is 0 to 29%.

**Q.** And the pest or weed control at 140 g/ha [1, 5]?
**A.** The pest or weed control at 140 g/ha was 0 to 29%.

**Q.** And the pest or weed control at 70 g/ha [1, 6]?
**A.** The pest or weed control at 70 g/ha was 0 to 29%.

**Q.** What about the pest or weed control at 140 g/ha [1, 6] of the same compound?
**A.** The pest or weed control at 140 g/ha was 30 to 44%.

**Q.** What about the pest or weed control at 70 g/ha [1, 7] of the same compound?
**A.** Its pest or weed control at 70 g/ha is 85 to 94%.

**Q.** What about the pest or weed control at 140 g/ha [1, 7] of the same compound?
**A.** The pest or weed control at 140 g/ha was 85 to 94%.

**Q.** And the pest or weed control at 70 g/ha [1, 8]?
**A.** Its pest or weed control at 70 g/ha is 45 to 59%.

**Q.** What about the pest or weed control at 140 g/ha [1, 8] of the same compound?
**A.** The pest or weed control at 140 g/ha was 60 to 74%.

**Q.** What about the pest or weed control at 70 g/ha [1, 9] of the same compound?
**A.** Its pest or weed control at 70 g/ha is 0 to 29%.

**Q.** And the pest or weed control at 140 g/ha [1, 9]?
**A.** The pest or weed control at 140 g/ha was 0 to 29%.

**Q.** What about the pest or weed control at 70 g/ha [2, 10] of the same compound?
**A.** Its pest or weed control at 70 g/ha is 0 to 29%.

**Q.** What about the pest or weed control at 140 g/ha [2, 10] of the same compound?
**A.** Its pest or weed control at 140 g/ha is 0 to 29%.

**Q.** What about the pest or weed control at 70 g/ha [2, 11] of the same compound?
**A.** Its pest or weed control at 70 g/ha is 0 to 29%.

**Q.** And the pest or weed control at 140 g/ha [2, 11]?
**A.** Its pest or weed control at 140 g/ha is 0 to 29%.

**Q.** And the pest or weed control at 70 g/ha [2, 12]?
**A.** Its pest or weed control at 70 g/ha is 0 to 29%.

**Q.** And the pest or weed control at 140 g/ha [2, 12]?
**A.** Its pest or weed control at 140 g/ha is 0 to 29%.

**Q.** And the pest or weed control at 70 g/ha [2, 13]?
**A.** The pest or weed control at 70 g/ha was 0 to 29%.

**Q.** What about the pest or weed control at 140 g/ha [2, 13] of the same compound?
**A.** The pest or weed control at 140 g/ha was 0 to 29%.

**Q.** And the pest or weed control at 70 g/ha [2, 14]?
**A.** Its pest or weed control at 70 g/ha is 0 to 29%.

**Q.** And the pest or weed control at 140 g/ha [2, 14]?
**A.** Its pest or weed control at 140 g/ha is 0 to 29%.

**Q.** And the pest or weed control at 70 g/ha [2, 15]?
**A.** The pest or weed control at 70 g/ha was 0 to 29%.

**Q.** What about the pest or weed control at 140 g/ha [2, 15] of the same compound?
**A.** Its pest or weed control at 140 g/ha is 0 to 29%.

**Q.** What about the pest or weed control at 70 g/ha [2, 16] of the same compound?
**A.** Its pest or weed control at 70 g/ha is 0 to 29%.

**Q.** What about the pest or weed control at 140 g/ha [2, 16] of the same compound?
**A.** Its pest or weed control at 140 g/ha is 0 to 29%.

**Q.** And the pest or weed control at 70 g/ha [2, 17]?
**A.** Its pest or weed control at 70 g/ha is 0 to 29%.

**Q.** And the pest or weed control at 140 g/ha [2, 17]?
**A.** Its pest or weed control at 140 g/ha is 0 to 29%.

**Q.** And the melting point?
**A.** Its melting point is 123 to 124 °C.
